According to patent US12297476B2, “Metallic nanoparticles and methods of making and using the same” (Saint Joseph's University, priority 2020, dated 2025):

System: Medicago sativa cells
Conditions: 200 ppm (highest concentration), after two weeks of continuous growth in liquid medium
Experimental: To determine the IC50 of KAuCl4, the filter sterilized stock solution of KAuCl4 (prepared in deionized water) was added at different concentrations (10-200 ppm) to 20 mL culture having a cell density of 20,000 cells/mL and incubated on the shaker for 2 weeks. Culture aliquots (1 mL) were collected at an interval of 48 h, spun at 2000 rpm for 10 min, stained with phosphate buffered Trypan Blue, and dead cells were counted using a haemocytometer. Percentage of cell death was determined from the total cell number.

SMILES: [Cl][Au-]([Cl])([Cl])[Cl].[K+] [KAuCl4, potassium gold chloride]
- cells eliminated from the culture (cell death): 25%
